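Where inhibition never reached the appropriate level, the endpoint shown equals the highest concentration tested. Otherwise, values were interpolated linearly from a five-concentration, 48-hour dose response in 96-well plates. Abbreviation: GI50, concentration required for 50% inhibition of growth.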 Active and inactive are the calls of the source. No stated cut-off is given here; in the data, active = GI50 up to about 1.1 µM and inactive = higher.
What was measured:
Experiment in all cases: DTP human tumour cell line panel, 48 h
[1] = system: A549
[2] = system: CCRF-CEM
[3] = system: COLO 205
[4] = system: HCT-116
[5] = system: IGROV-1
[6] = system: NCI-H23
[7] = system: OVCAR-5
[8] = system: RPMI-8226
[9] = system: SNB-19
[10] = system: SNB-78
[11] = system: TK-10
[12] = system: DU-145
[13] = system: Hs-578T
[14] = system: MCF7
[15] = system: MDA-N
[16] = system: PC-3
[17] = system: SF-539
[18] = system: SNB-75
[19] = system: T47D
[20] = system: UACC-257

Measured: GI50

CC(C(=O)N1C(=O)N(C(=O)C(C)C(O)c2ccccc2)C2CCCCC21)C(O)c1ccccc1 (stereo not drawn)
inactive: [1] 44.3 µM | [2] 44.2 µM | [3] > 100 µM | [4] > 100 µM | [5] > 100 µM | [6] > 100 µM | [7] > 100 µM | [8] 34 µM | [9] 92.7 µM | [10] > 100 µM | [11] > 100 µM

COc1nc2ccc(CNc3ccc(C(=O)O)cc3)cc2nc1OC
inactive: [1] > 10 µM | [2] > 10 µM | [3] > 10 µM | [12] > 10 µM | [4] > 10 µM | [13] > 10 µM | [5] > 10 µM | [14] > 10 µM | [15] > 10 µM | [6] > 10 µM | [7] > 10 µM | [16] > 10 µM | [8] > 10 µM | [17] > 10 µM | [9] > 10 µM | [18] > 10 µM | [19] > 10 µM | [11] > 10 µM | [20] > 10 µM

OCC1OC(NC(=S)NCCC(F)(F)C(F)(F)C(F)(F)C(F)(F)C(F)(F)C(F)(F)F)C(O)C(O)C1O (stereo not drawn)
inactive: [1] > 100 µM | [2] 38.3 µM | [3] > 100 µM | [12] > 100 µM | [4] 80.4 µM | [13] > 100 µM | [5] 65.9 µM | [14] > 100 µM | [15] > 100 µM | [6] > 100 µM | [7] > 100 µM | [16] 43 µM | [8] > 100 µM | [17] > 100 µM | [9] 69.8 µM | [18] > 100 µM | [19] > 100 µM | [11] > 100 µM | [20] 54.7 µM

Cc1ccc(O)c(-c2cc(-c3cccc(Br)c3)on2)c1
inactive: [1] 29.4 µM | [2] 26.9 µM | [3] 18.2 µM | [12] 33.6 µM | [4] 20 µM | [13] 44.6 µM | [5] 14.5 µM | [14] 13.2 µM | [15] 25.6 µM | [6] 37.1 µM | [7] 35.8 µM | [16] 45.6 µM | [8] 25.2 µM | [17] 28.8 µM | [9] 39.3 µM | [18] 12.2 µM | [19] 28.2 µM | [11] 21.9 µM | [20] 48.8 µM

CCC1(c2ccccc2)C(=O)N=C(c2ccccc2)N1CCc1ccccc1 (stereo not drawn)
inactive: [1] > 100 µM | [2] > 100 µM | [3] > 100 µM | [12] > 100 µM | [4] > 100 µM | [13] > 100 µM | [5] > 100 µM | [14] > 100 µM | [15] > 100 µM | [6] > 100 µM | [7] > 100 µM | [16] > 100 µM | [8] > 100 µM | [17] > 100 µM | [9] > 100 µM | [18] > 100 µM | [19] > 100 µM | [11] > 100 µM | [20] > 100 µM

COC(=O)CCC(NC(=S)N/N=C(\C)c1ccc[nH]1)C(=O)OC (stereo not drawn)
inactive: [1] > 100 µM | [2] > 100 µM | [3] > 100 µM | [4] > 100 µM | [5] > 100 µM | [6] > 100 µM | [7] > 100 µM | [17] > 100 µM | [9] > 100 µM | [18] > 100 µM | [10] > 100 µM | [11] > 100 µM | [20] > 100 µM

NC(=S)N1N=C2c3ccccc3CC[C@H]2[C@@H]1c1ccc(Cl)cc1
inactive: [1] 30 µM | [2] 41.3 µM | [3] 17.9 µM | [4] 15.5 µM | [5] 19.4 µM | [6] 24.4 µM | [7] 47.6 µM | [8] 18.6 µM | [17] 41.7 µM | [9] 47.4 µM | [10] 87.3 µM | [11] 45.7 µM | [20] 25.2 µM

O=C(CCC(=O)c1ccc(Cl)cc1)NO
inactive: [1] > 100 µM | [2] > 100 µM | [3] > 100 µM | [12] > 100 µM | [4] > 100 µM | [13] > 100 µM | [5] > 100 µM | [14] > 100 µM | [15] > 100 µM | [6] > 100 µM | [7] > 100 µM | [16] > 100 µM | [8] > 100 µM | [17] > 100 µM | [9] > 100 µM | [18] > 100 µM | [19] > 100 µM | [11] > 100 µM | [20] > 100 µM

Clc1ccc(Cl)c(Nc2ccnc(SCc3ccccc3)n2)c1
inactive: [1] > 100 µM | [2] > 100 µM | [3] > 100 µM | [12] > 100 µM | [4] > 100 µM | [13] > 100 µM | [5] > 100 µM | [14] > 100 µM | [15] > 100 µM | [6] > 100 µM | [7] > 100 µM | [16] > 100 µM | [8] 99.8 µM | [17] > 100 µM | [9] > 100 µM | [18] > 100 µM | [19] 32.4 µM | [11] > 100 µM | [20] > 100 µM

Cc1cc(C)c(N)c(C)c1N
inactive: [1] > 100 µM | [2] > 100 µM | [3] > 100 µM | [4] > 100 µM | [5] > 100 µM | [6] > 100 µM | [7] > 100 µM | [8] > 100 µM | [17] > 100 µM | [9] > 100 µM | [10] > 100 µM | [11] > 100 µM | [20] > 100 µM

COc1ccc2nc3ccc(OC)cc3c([S+]([O-])CCCl)c2c1 (stereo not drawn)
inactive: [1] 20.9 µM | [2] 2.42 µM | [3] 1.77 µM | [12] 1.99 µM | [4] 1.83 µM | [13] 2.24 µM | [5] 2.48 µM | [14] 2.31 µM | [15] 2.44 µM | [6] 4.26 µM | [7] 14.9 µM | [16] 11.2 µM | [8] 2.11 µM | [17] 1.72 µM | [9] 22.5 µM | [18] 17.8 µM | [19] 2.04 µM | [11] 3.81 µM | [20] 2.21 µM

CC1=NN(c2cccc(Cl)c2)C2(C1)SCC(=O)N2c1nc2ccccc2s1 (stereo not drawn)
inactive: [1] 31.2 µM | [2] 21.8 µM | [3] 18.1 µM | [12] 24.6 µM | [4] 17.9 µM | [13] 41.1 µM | [5] 21.9 µM | [14] 25.6 µM | [15] 33 µM | [6] 29.2 µM | [7] 37 µM | [16] 23.3 µM | [8] 16.3 µM | [17] 22.8 µM | [9] 36 µM | [18] 13.2 µM | [19] 19.8 µM | [11] 30.2 µM | [20] 22.4 µM

OC(C1CCCCCCCCCC1)C(O)C1CCCCCCCCCC1 (stereo not drawn)
inactive: [1] > 100 µM | [2] > 100 µM | [3] > 100 µM | [12] > 100 µM | [4] > 100 µM | [13] > 100 µM | [5] > 100 µM | [14] > 100 µM | [15] > 100 µM | [6] 43.2 µM | [7] > 100 µM | [16] > 100 µM | [8] > 100 µM | [17] > 100 µM | [9] > 100 µM | [18] > 100 µM | [19] > 100 µM | [11] > 100 µM | [20] > 100 µM

Cc1c2cccc-2ccc2c1[nH]c1ccc(Br)cc12
inactive: [1] 4.2 µM | [2] 3.12 µM | [3] 2.06 µM | [12] 10.9 µM | [4] 4.85 µM | [13] 5.86 µM | [5] 2.56 µM | [14] 4.06 µM | [15] 6.32 µM | [6] 6.44 µM | [7] 3.94 µM | [16] 4.18 µM | [8] 3.15 µM | [17] 4.81 µM | [9] 7.64 µM | [18] 2.21 µM | [19] 1.69 µM | [11] 17.1 µM | [20] 24.2 µM

COc1cccc(C(=O)N[C@@H]2[C@H](O)[C@@H](CO)O[C@H]2n2cnc3c(N)ncnc32)c1
inactive: [1] > 100 µM | [2] > 100 µM | [3] > 100 µM | [12] > 100 µM | [4] > 100 µM | [13] > 100 µM | [5] > 100 µM | [14] > 100 µM | [15] > 100 µM | [6] > 100 µM | [7] > 100 µM | [16] > 100 µM | [8] > 100 µM | [17] > 100 µM | [9] > 100 µM | [18] > 100 µM | [19] > 100 µM | [11] > 100 µM | [20] > 100 µM

COC1=C(Br)[C@H](O)[C@@]2(C=C1Br)CC(C(=O)NCCCCCNC(=N)N)=NO2 [APLYSINAMISINE II]
inactive: [1] > 10 µM | [2] > 10 µM | [3] > 10 µM | [12] > 10 µM | [4] > 10 µM | [13] > 10 µM | [5] > 10 µM | [14] > 10 µM | [15] > 10 µM | [6] > 10 µM | [7] > 10 µM | [16] > 10 µM | [8] > 10 µM | [17] > 10 µM | [9] > 10 µM | [18] 6.79 µM | [19] > 10 µM | [11] > 10 µM | [20] > 10 µM
